In US10568877B2, “Preparation and anti-HSV-1 application of quinolinone derivatives” (OCEAN UNIVERSITY OF CHINA, priority 2015, dated 2020):

System: HSV-1
Assay: Antiviral activity against HSV-1 by cytopathic (CPE) assay in Hep-2 cells
Format: cell-based, Herpes Simplex Virus 1
Details: for TI = TC50/IC50: TC50 = median toxic concentration for Hep-2 monolayer cells, IC50 against HSV-1; for IC50: anti-HSV-1 activity, CPE assay, Hep-2 cells, neutral red OD 540 nm, Reed-Muench
Description: The antiviral activities against HSV-1 were evaluated by cytopathic (CPE) assay. Hep-2 monolayer cells were treated with trypsin enzyme and transferred to 96-well plates. HSV-1 viruses were seeded with Hep-2 cells in 96-well plates, with 2% RPMI-1640 medium, and incubated under 37° C., 5% CO2. After more than 90% lesions, the virus-infected cells were repeatedly freezed and thawed for 3 times, centrifuged, and stored in the refrigerator at −80° C. Each tested compound was dissolved in 10 μL DMSO to make a homogeneous solution and the solution was diluted 10 times by one-to-one dilution with 2% RPMI-1640 medium. The solution gradient was added to the infected cells incubated in 96-well plates. Ribavirin was used as positive control. Normal cells alone and infected cells alone were used as control. All samples were incubated under 37° C., 5% CO2. Examine pathological changes once every hour, for 24 h. […] OD value was determined at 540 nm. IC50 values of the tested compounds were calculated by Reed-Muench methods.

Row | IC50 [µM] | IC50 (Human alphaherpesvirus 1) [µM] | SMILES | TI = TC50/IC50
1 | 2 to 25 |  | COc1ccc([C@@]2(O)c3c(ccc(/C=C/[C@]4(C)CCC(C)(C)CO4)c3O)NC(=O)[C@@H]2OC)cc1 [Compound 12] | ++ (“++” means TI was between 20 and 100)
2 |  | 0.05 to 2 | CO[C@@H]1C(=O)Nc2ccc(/C=C/[C@@]3(C)CCC(=O)[C@@H](C)C3)c(O)c2[C@@]1(O)c1ccccc1 [Compound 4] | 
3 |  | 25 to 50 | COc1ccc([C@@]2(O)c3c(ccc(CC=C(C)C)c3O)NC(=O)[C@@H]2OC)cc1 [Compound 17] | 
4 |  | 2 to 25 | COc1ccc([C@@]2(O)c3c(ccc(/C=C/[C@@]4(C)CCC(C)(C)CO4)c3O)NC(=O)[C@@H]2OC)cc1 [Compound 11] | 
5 |  | 50 to 100 | COc1ccc([C@]2(O)c3ccccc3NC(=O)[C@H]2O)cc1 [Compound 16] | 
6 |  | 50 to 100 | NC(=O)c1ncn([C@@H]2O[C@H](CO)[C@@H](O)[C@H]2O)n1 [Ribavirin, reference compound] | ++++ (“++++” means TI > 500)
7 |  | 25 to 50 | O=c1[nH]c2ccccc2c(-c2ccccc2)c1O [Compound 30] | 
8 |  | 2 to 25 | COc1ccc([C@@]2(O)c3c(ccc(/C=C/[C@]4(C)CC[C@@H](O)C(C)(C)O4)c3O)NC(=O)[C@@H]2OC)cc1 [Compound 7] | 
9 |  | 25 to 50 | C=C(C)/C=C/c1ccc2c(c1O)[C@](O)(c1ccc(OC)cc1)[C@@H](OC)C(=O)N2 [Compound 19] | 
10 |  | 2 to 25 | COc1ccc([C@@]2(O)c3c(ccc(/C=C/[C@@]4(C)OC(C)(C)[C@H]5C[C@H]54)c3O)NC(=O)[C@@H]2OC)cc1 [Compound 6] | 
11 |  | 0.05 to 2 | CO[C@@H]1C(=O)Nc2ccc(/C=C/[C@]3(C)CCC(=O)[C@@H](C)C3)c(O)c2[C@@]1(O)c1ccccc1 [Compound 2a] | 
12 |  | 0.05 to 2 | COc1ccc([C@@]2(O)c3c(ccc(/C=C/C4(C)CCC(C)(C)C(O)O4)c3O)NC(=O)[C@@H]2OC)cc1 (some centres unmarked) [Compound 10] | 
13 |  | 0.05 to 2 | C=C(C)[C@H]1CC[C@](C)(/C=C/c2ccc3c(c2O)[C@@](O)(c2ccccc2)[C@H](OC)C(=O)N3)O1 [Compound 1] | 
14 |  | 25 to 50 | COc1ccc(-c2c(O)c(=O)[nH]c3ccccc23)cc1 [Compound 29] | 
15 |  | 2 to 25 | COc1ccc([C@@]2(O)c3c(ccc(/C=C/[C@@]4(C)OC(C)(C)[C@@H]5C[C@@H]54)c3O)NC(=O)[C@@H]2OC)cc1 [Compound 5] | 
16 |  | 50 to 100 | COc1ccc([C@]2(O)c3c(O)cccc3NC(=O)[C@H]2O)cc1 [Compound 15] | 
17 |  | 25 to 50 | COc1ccc([C@@]2(O)c3c(ccc(/C=C/C(C)=O)c3O)NC(=O)[C@@H]2OC)cc1 [Compound 18] | 
18 |  | 0.05 to 2 | CO[C@@H]1C(=O)Nc2ccc(/C=C/[C@]3(C)CC[C@@H](O)[C@@H](C)C3)c(O)c2[C@@]1(O)c1ccccc1 [Compound 3] | 
